How the values were obtained:
[1] = test system: human umbilical vein endothelial cells (HUVEC); assay: HUVEC+VEGF proliferation assay; assay type: cell-based; conditions: Homo sapiens, HUVEC; VEGF 6 ng/mL, 72 h, MTT
Protocol: HUVEC+VEGF Proliferation Assay
This assay determines the ability of a test compound to inhibit the growth factor-stimulated proliferation of human umbilical vein endothelial cells (“HUVEC”). HUVEC cells (passage 3–4; Clonetics, Corp.) were thawed into EGM2 culture medium (Clonetics Corp) in T75 flasks. Fresh EGM2 medium was added to the flasks 24 hours later. Four or five days later, cells were exposed to another culture medium (F12K medium supplemented with 10% fetal bovine serum (FBS), 60 μg/mL endothelial cell growth supplement (ECGS), and 0.1 mg/mL heparin). Exponentially-growing HUVEC cells were used in experiments thereafter. Ten to twelve thousand HUVEC cells were plated in 96-well dishes in 100 μl of rich, culture medium (described above). The cells were allowed to attach for 24 hours in this medium. The medium was then removed by aspiration and 105 μl of starvation media (F12K+1% FBS) was added to each well. After 24 hours, 15 μl of test agent dissolved in 1% DMSO in starvation medium or this vehicle alone was added into each treatment well; the final DMSO concentration was 0.1%. One hour later, 30 μl of VEGF (30 ng/mL) in starvation media was added to all wells except those containing untreated controls; the final VEGF concentration was 6 ng/mL. Cellular proliferation was quantified 72 hours later by MTT dye reduction, at which time cells were exposed for 4 hours MTT (Promega Corp.). Dye reduction was stopped by addition of a stop solution (Promega Corp.) and absorbance at 595 nm was determined on a 96-well spectrophotometer plate reader.

PDGFRβ = molecular target: T1, PDGFRβ (Homo sapiens, UniProt P09619); assay: PAE-PDGFRβ phosphorylation in PAE-PDGFRB cells assay; assay type: cell-based; conditions: PAE cells overexpressing human PDGFRβ, PDGF-BB stimulated; read-out: PAE PDGFR autophos IC50 (nM) AVG
T1 construct: expressed in transfected cells; host or cells: porcine aorta endothelial (PAE)-PDGFRβ cells
T1 sequence (P09619 33-1106): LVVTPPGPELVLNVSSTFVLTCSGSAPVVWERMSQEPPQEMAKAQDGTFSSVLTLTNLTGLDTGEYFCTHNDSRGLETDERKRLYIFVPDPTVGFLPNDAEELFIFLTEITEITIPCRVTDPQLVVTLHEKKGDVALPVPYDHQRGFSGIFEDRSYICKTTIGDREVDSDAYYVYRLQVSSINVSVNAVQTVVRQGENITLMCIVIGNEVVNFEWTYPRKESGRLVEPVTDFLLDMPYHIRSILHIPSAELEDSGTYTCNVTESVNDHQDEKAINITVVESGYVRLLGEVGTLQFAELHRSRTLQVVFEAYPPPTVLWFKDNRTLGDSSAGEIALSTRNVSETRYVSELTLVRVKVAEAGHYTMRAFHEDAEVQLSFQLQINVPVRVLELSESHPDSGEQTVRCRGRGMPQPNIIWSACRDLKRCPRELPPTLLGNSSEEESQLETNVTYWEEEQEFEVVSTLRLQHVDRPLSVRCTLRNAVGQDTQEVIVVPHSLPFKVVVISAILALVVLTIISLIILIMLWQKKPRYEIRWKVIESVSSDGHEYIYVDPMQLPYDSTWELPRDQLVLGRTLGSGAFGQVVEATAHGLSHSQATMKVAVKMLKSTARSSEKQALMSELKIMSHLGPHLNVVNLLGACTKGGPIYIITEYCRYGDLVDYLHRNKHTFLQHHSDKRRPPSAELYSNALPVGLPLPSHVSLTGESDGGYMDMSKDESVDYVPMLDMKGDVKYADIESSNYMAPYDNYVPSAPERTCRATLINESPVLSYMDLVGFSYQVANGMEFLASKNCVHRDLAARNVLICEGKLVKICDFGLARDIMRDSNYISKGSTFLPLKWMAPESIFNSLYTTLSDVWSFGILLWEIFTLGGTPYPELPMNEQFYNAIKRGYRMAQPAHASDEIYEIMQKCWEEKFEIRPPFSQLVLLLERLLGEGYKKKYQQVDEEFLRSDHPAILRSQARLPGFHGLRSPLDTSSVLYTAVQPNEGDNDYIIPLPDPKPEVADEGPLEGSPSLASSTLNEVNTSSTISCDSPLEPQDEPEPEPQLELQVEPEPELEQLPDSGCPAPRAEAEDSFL
Protocol: PAE-PDGFRβ Phosphorylation in PAE-PDGFRB Cells Assay
This assay determines the ability of a test compound to inhibit the autophosphorylation of PDGFRβ in porcine aorta endothelial (PAE)-PDGFRβ cells. PAE cells that overexpress human PDGFRβ were used in this assay. The cells were cultured in Ham's F12 media supplemented with 10% fetal bovine serum (FBS) and 400 ug/ml G418. Twenty thousands cells were seeded in each well of a 96-well plate in 50 μL of growth media and allowed to attach for 6 hours at 37° C. Cells were then exposed to the starvation media (Ham's F12 media supplemented with 0.1% FBS) for 16 hours. After the starvation period was over, 10 μL of test agent in 5% DMSO in starvation media were added to the test wells and 10 μL of the vehicle (5% DMSO in starvation media) were added into the control wells. The final DMSO concentration in each well was 0.5%. Plates were incubated at 37° C. for 1 hour and the cells were then stimulated with 1 μg/mL PDGF-BB (R & D System) in the presence of 2 mM Na3VO4 for 8 minutes. The cells were washed once with 1 mm Na3VO4 in HBSS and lysed by adding 50 μL per well of lysis buffer. One hundred μL of dilution buffer were then added to each well and the diluted cell lysate was transferred to a 96-well goat ant-rabbit coated plate (Pierce), which was pre-coated with Rabbit anti Human PDGFRβ antibody (Santa Cruz). The plates were incubated at room temperature for 2 hours and washed seven times with 1% Tween 20 in PBS. HRP-PY20 (Santa Cruz) was diluted and added to the plate for a 30-minute incubation. Plates were then washed again and TMB peroxidase substrate (Kirkegaard & Perry) was added for a 10-minute incubation. One hundred μL of 0.09 N H2SO4 was added into each well of the 96-well plate to stop the reaction. Phosphorylation status was assessed by spectrophotometer reading at 450 nm. IC50 values were calculated by curve fitting using a four-parameter analysis.

[2] = molecular target: T2, unphosphorylated VEGF-R2Δ50 (FLVK) (Homo sapiens, UniProt P35968, DEL940-989/E990V); assay: VEGF-R2 coupled spectrophotometric assay, unphosphorylated VEGF-R2Δ50 (FLVK); assay type: biochemical; conditions: unphosphorylated VEGF-R2Δ50; for inhibition at 0.05 µM: 50 nM compound, read-out: FLVK (% inh @ 50 nM)
T2 construct: VEGF-R2Δ50 contains residues 806–939 and 990–1171; made in house; host or cells: baculovirus/insect cell system
T2 sequence (P35968 with tags, fused parts or gaps DEL940-989/E990V limits assumed): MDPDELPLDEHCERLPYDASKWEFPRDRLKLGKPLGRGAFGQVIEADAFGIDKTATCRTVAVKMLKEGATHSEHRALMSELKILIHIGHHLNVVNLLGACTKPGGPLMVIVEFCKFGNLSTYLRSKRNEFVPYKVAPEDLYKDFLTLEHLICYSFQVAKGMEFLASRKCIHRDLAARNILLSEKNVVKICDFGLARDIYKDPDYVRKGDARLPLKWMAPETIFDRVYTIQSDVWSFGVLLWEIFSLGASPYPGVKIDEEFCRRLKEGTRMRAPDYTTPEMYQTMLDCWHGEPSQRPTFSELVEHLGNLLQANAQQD
Outline: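 Ki obtained by Morrison-equation fitting of activity at varied compound levels; reaction started with 5–40 nM enzyme. Non-autophosphorylated kinase construct (insect cell-expressed) with 3 mM ATP, 20 mM poly(E4Y1), 60 mM MgCl2 plus 2 mM MnCl2, pH 7.5 HEPES; NADH loss at 340 nm via PK/LDH coupling.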

Huvec = assay: bFGF Huvec proliferation; assay type: cell-based, human; conditions: Homo sapiens, HUVEC

Row | Compound | IC50 (PDGFRβ) [nM] | inhibition at 0.05 µM [2] [%] | Ki [2] [nM] | IC50 [1] [nM] | IC50 (Huvec) [nM]
1 | CNC(=O)c1c(Cl)n(C)c2cc(Oc3ccnc4cc(-c5nc(C(C)(C)O)cs5)sc34)ccc12 [Example 75, 2-Chloro-6-{2-[4-(1-hydroxy-1-methyl-ethyl)thiazol-2-yl]-thieno[3,2-b]pyridin-7-yloxy}-1-methyl-1H-indole-3-carboxyllc acid methylamide] | 16.6 | 84 | 2.62 | 1.4 | 10000
2 | Cc1sc2cc(Oc3ccnc4cc(C(=O)N5CC[C@@H](O)C5)sc34)ccc2c1C(=O)NCC1CC1 [Example 126, 6[(2-{[(3R)-3-Hydroxypyrrolidin-1-yl]carbonyl}thieno[3,2-b]pyridin-7-yl)oxy]-2-methylbenzo[b]thiophene-3-carboxylic acid (cyclopropylmethyl)amide] | 336 | 96 | 0.59 | 10 | 5660
3 | Cc1oc2cc(Oc3ccnc4ccsc34)ccc2c1C(=O)Nc1nnc(-c2ccccc2)s1 [Example 106, 2-Methyl-6-(thieno[3,2-b]pyridin-7-yloxy)-benzofuran-3-carboxylic acid (5-phenyl-[1,3,4]thiadiazol-2-yl)-amide] |  | 98 |  | 10 | 638
4 | Cc1c(C(=O)NCCCO)c2ccc(Oc3ccnc4cc(C(=O)N5CC[C@@H](O)C5)sc34)cc2n1C [Example 64, 6-[2-((R)-3-Hydroxy-pyrrolidine-1-carbonyl)-thieno[3,2-b]pyridin-7-yloxy]-1,2-dimethyl-1H-indole-3-carboxylic acid (3-hydroxy-propyl)-amide] |  | 64 | 11.8 | 10 | 10000
5 | CNC(=O)c1c(C)[nH]c2cc(Oc3ccnc4cc(C(=O)N5CC[C@@H](O)C5)sc34)ccc12 [Example 24, 6-[2-(3-Hydroxy-pyrrolidine-1-carbonyl)-thieno[3,2-b]pyridin-7-yloxy]-2-methyl-1H-indole-3-carboxylic acid methylamide] |  | 69 | 4.2 | 32 | 10000
6 | CCc1oc2cc(Oc3ccnc4cc(C(=O)N5CC[C@@H](OC)C5)sc34)ccc2c1C(=O)NC [Example 14, 6-(2-[3-methoxypyrrolidine-1-carbonyl]thieno[3,2-b]pyridin-7-yloxy)-2-ethylbenzofuran-3-carboxylic acid methylamide] |  | 81 | 1.46 | 9.4 | 287
7 | Cc1c(C(=O)NCC2CC2)c2ccc(Oc3ccnc4cc(-c5nccn5C)sc34)cc2n1C [Example 55, N-(Cyclopropylmethyl)-1,2-dimethyl-6-{[2-(1-methyl-1H-imidazol-2-yl)thieno[3,2-b]pyridin-7-yl]oxy}-1H-indole-3-carboxamide] | 31 | 62 | 4.86 | 5.8 | 
8 | Cc1c(C(=O)NC(C)C)c2ccc(Oc3ccnc4cc(-c5nccs5)sc34)cc2n1C [Example 66, 1,2-Dimethyl-6-(2-thiazol-2-yl-thieno[3,2-b]pyridin-7-yloxy)-1H-indole-3-carboxylic acid isopropylamide] | 90.7 | 75 | 5.2 | 5.8 | 

More lines, in order of falling Ki [2], values ahead:

Row | IC50 (PDGFRβ) [nM] | inhibition at 0.05 µM [2] [%] | Ki [2] [nM] | Compound | IC50 [1] [nM] | IC50 (Huvec) [nM]
9 |  | 46 | 8.14 | CNC(=O)c1c(C)n(C)c2cc(Oc3ccnc4cc(C(=O)N5CCC[C@H]5CO)sc34)ccc12 [Example 16, 6-[2-(2-Hydroxymethyl-pyrrolidine-1-carbonyl)-thieno[3,2-b]pyridin-7-yloxy]-1,2-dimethyl-1H-indole-3-carboxylic acid methylamide] | 10 | 1000
10 | 213 | 64 | 5.1 | CCc1sc2cc(Oc3ccnc4cc(C(=O)N5CCC[C@H]5COC)sc34)ccc2c1C(=O)NC [Example 137, 2-Ethyl-6-[(2-{[(2S)-2-(methoxymethyl)pyrrolidin-1-yl]carbonyl}thieno[3,2-b]pyridin-7-yl)oxy]benzo[b]thiophene-3-carboxylic acid methylamide] | 2.1 | 294
11 | 38.3 | 81 | 2.17 | CCCNC(=O)c1c(C)n(C)c2cc(Oc3ccnc4cc(-c5nccs5)sc34)ccc12 [Example 60, 1,2-Dimethyl-6-(2-thiazol-2-yl-thieno[3,2-b]pyridin-7-yloxy)1H-indole-3-carboxylic acid propylamide] | 1.34 | 1700
12 |  | 84 | 1.2 | Cc1sc2cc(Oc3ccnc4cc(-c5nccn5C)sc34)ccc2c1C(=O)NCCCO [Example 118, 2-Methyl-6-{[2-(1-methyl-1H-imidazol-2-yl)thieno[3,2-b]pyridin-7-yl]oxy}benzo[b]thiophene-3-carboxylic acid 3-hydroxypropylamide] | 0.9 | 736
13 | 49 | 96 | 0.91 | Cc1oc2cc(Oc3ccnc4ccsc34)ccc2c1C(=O)Nc1ccc(N2CCOCC2)nc1 [Example 102, 2-Methyl-6-(thieno[3,2-b]pyridin-7-yloxy)benzofuran-3-carboxylic acid (6-morpholin-4-yl-pyridin-3-yl)amide] | 0.186 | 1720
14 | 53.1 | 89 | 0.884 | COC[C@@H]1CCCN1C(=O)c1cc2nccc(Oc3ccc4c(C(=O)NC(C)C)c(C)oc4c3)c2s1 [Example 82, 6-(2-[(S)-2-(methoxymethyl)pyrrolidine-1-carbonyl]thieno[3,2-b]pyridin-7-yloxy)-2-methyl-benzofuran-3-carboxylic acid isopropylamide] | 2.28 | 2060
15 | 235 | 89 | 0.848 | CCc1oc2cc(Oc3ccnc4cc(C(=O)N5CC[C@@H](O)C5)sc34)ccc2c1C(=O)NC [Example 95, 2-Ethyl-6-[2-(3-hydroxy-pyrrolidine-1-carbonyl)-thieno[3,2-b]pyridin-7-yloxy]-benzofuran-3-carboxylic acid methylamide] | 10 | 96
16 | 250 | 95 | 0.419 | CO[C@@H]1CCN(C(=O)c2cc3nccc(Oc4ccc5c(C(=O)NC6CC6)c(C)oc5c4)c3s2)C1 [Example 89, 6-[2-(3-Methoxypyrrolidine-1-carbonyl)-thieno[3,2-b]pyridin-7-yloxy]-2-methyl-benzofuran-3-carboxylic acid cyclopropylamide] |  | 5.2
17 | 4.4 | 100 | 0.2 | CCCNC(=O)c1c(C)oc2cc(Oc3ccnc4cc(C(=O)N5CC[C@@H](OC)C5)sc34)ccc12 [Example 92, 6-[2-(3-Methoxy-pyrrolidine-1-carbonyl)-thieno[3,2-b]pyridin-7-yloxy]-2-methyl-benzofuran-3-carboxylic acid propyl amide] | 0.18 | 13
